Source: ChEMBL document CHEMBL1150862, “Synthetic derivatives of abietic acid with radical scavenging activity” (J Nat Prod, 2001)
Calls of active or inactive are those of the source. The calls are words filed in the database; no cut-off is given here.

Tested on: Radical scavenging activity
Assay: Antioxidant activity assessed as DPPH radical scavenging activity by spectrophotometric assay
Format: functional

Structure (SMILES) | Activity
COc1ccccc1Nc1cc2c(cc1C(C)C)C[C@@H]1[C@](C)(CCC[C@@]1(C)C(=O)O)C2 | Active
CC(C)c1cc2c(cc1Nc1ccccc1)C[C@@]1(C)CCC[C@@](C)(C(=O)O)[C@@H]1C2 | Active
COc1ccccc1Nc1cc2c(c(Nc3ccccc3OC)c1C(C)C)C[C@@H]1[C@](C)(CCC[C@@]1(C)C(=O)O)C2 | Active
COc1ccccc1Nc1c(C(C)C)ccc2c1C[C@@H]1[C@](C)(CCC[C@@]1(C)C(=O)O)C2 | Active
COc1ccc(Nc2c(C(C)C)ccc3c2C[C@@H]2[C@](C)(CCC[C@@]2(C)C(=O)O)C3)cc1 | Active
COc1ccc(Nc2cc3c(c(N)c2C(C)C)C[C@@H]2[C@](C)(CCC[C@@]2(C)C(=O)O)C3)cc1 | Active
COc1ccc(Nc2cc3c(cc2C(C)C)C[C@@H]2[C@](C)(CCC[C@@]2(C)C(=O)O)C3)cc1 | Active
CC(C)c1c(Nc2ccccc2)cc2c(c1Nc1ccccc1)C[C@@H]1[C@](C)(CCC[C@@]1(C)C(=O)O)C2 | Active
Cc1cc(C(C)(C)C)c(O)c(C(C)(C)C)c1 | Active
CC(C)c1ccc2c(c1Nc1ccccc1)C[C@@H]1[C@](C)(CCC[C@@]1(C)C(=O)O)C2 | Active
COc1ccc(Nc2cc3c(c([N+](=O)[O-])c2C(C)C)C[C@@H]2[C@](C)(CCC[C@@]2(C)C(=O)O)C3)cc1 | Active
CC(C)c1c(Nc2ccccc2)cc2c(c1[N+](=O)[O-])C[C@@H]1[C@](C)(CCC[C@@]1(C)C(=O)O)C2 | Active
COc1ccc(Nc2cc3c(c(Nc4ccc(OC)cc4)c2C(C)C)C[C@@H]2[C@](C)(CCC[C@@]2(C)C(=O)O)C3)cc1 | Active
CC(C)c1c(Nc2ccccc2)cc2c(c1N)C[C@@H]1[C@](C)(CCC[C@@]1(C)C(=O)O)C2 | Active
COc1ccccc1Nc1cc2c(c([N+](=O)[O-])c1C(C)C)C[C@@H]1[C@](C)(CCC[C@@]1(C)C(=O)O)C2 | Active
COc1ccccc1Nc1cc2c(c(N)c1C(C)C)C[C@@H]1[C@](C)(CCC[C@@]1(C)C(=O)O)C2 | Active
